According to PubChem BioAssay (NCI):
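Compound exposure: 48 hours, 5 concentrations, 96-well plates. Definition used: TGI = concentration required for complete inhibition of growth.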

Key:
Experiment in all cases: inhibition of tumour cell growth, NCI panel, 48 h
CAKI-1 renal = test system: CAKI-1 renal
MDA-MB-231 breast = test system: MDA-MB-231 breast
SF-539 CNS = test system: SF-539 CNS
SF-295 CNS = test system: SF-295 CNS
M14 melanoma = test system: M14 melanoma
U251 CNS = test system: U251 CNS
RPMI-8226 leukemia = test system: RPMI-8226 leukemia
OVCAR-8 ovarian = test system: OVCAR-8 ovarian
HCT-15 colon = test system: HCT-15 colon
SNB-19 CNS = test system: SNB-19 CNS
OVCAR-5 ovarian = test system: OVCAR-5 ovarian
IGROV1 ovarian = test system: IGROV1 ovarian
RXF 393 renal = test system: RXF 393 renal
HCT-116 colon = test system: HCT-116 colon
NCI-H226 lung = test system: NCI-H226 lung
SK-MEL-28 melanoma = test system: SK-MEL-28 melanoma
NCI-H23 lung = test system: NCI-H23 lung
MDA-MB-435 = test system: MDA-MB-435
SK-MEL-2 melanoma = test system: SK-MEL-2 melanoma
HL-60(TB) leukemia = test system: HL-60(TB) leukemia
DU-145 prostate = test system: DU-145 prostate
EKVX NSCLC = test system: EKVX NSCLC
SF-268 CNS = test system: SF-268 CNS
T-47D breast = test system: T-47D breast
HOP-62 NSCLC = test system: HOP-62 NSCLC
OVCAR-3 ovarian = test system: OVCAR-3 ovarian
NCI-H522 lung = test system: NCI-H522 lung
HOP-92 NSCLC = test system: HOP-92 NSCLC
MALME-3M melanoma = test system: MALME-3M melanoma
MDA-N = test system: MDA-N
HS 578T breast = test system: HS 578T breast
MCF7 breast = test system: MCF7 breast
KM12 colon = test system: KM12 colon
CCRF-CEM leukemia = test system: CCRF-CEM leukemia
ACHN renal = test system: ACHN renal
LOX IMVI melanoma = test system: LOX IMVI melanoma
SR leukemia = test system: SR leukemia
BT-549 breast = test system: BT-549 breast
OVCAR-4 ovarian = test system: OVCAR-4 ovarian
PC-3 prostate = test system: PC-3 prostate
K-562 leukemia = test system: K-562 leukemia
UO-31 renal = test system: UO-31 renal
MOLT-4 leukemia = test system: MOLT-4 leukemia
UACC-257 melanoma = test system: UACC-257 melanoma
786-0 renal = test system: 786-0 renal
SK-MEL-5 melanoma = test system: SK-MEL-5 melanoma
A549 NSCLC = test system: A549 NSCLC
SW-620 colon = test system: SW-620 colon
COLO 205 colon = test system: COLO 205 colon
SK-OV-3 ovarian = test system: SK-OV-3 ovarian
SN12C renal = test system: SN12C renal
HT29 colon = test system: HT29 colon
TK-10 renal = test system: TK-10 renal
A498 renal = test system: A498 renal
SNB-75 CNS = test system: SNB-75 CNS
NCI/ADR-RES ovarian = test system: NCI/ADR-RES ovarian
HCC-2998 colon = test system: HCC-2998 colon
UACC-62 melanoma = test system: UACC-62 melanoma
NCI-H460 lung = test system: NCI-H460 lung

Compound: COc1c(Cl)ccc(Cl)c1-c1nnc(-c2c(Cl)c(Cl)c(Cl)c(Cl)c2-c2nc3ccc(C(=O)c4ccccc4)cc3[nH]2)o1
- TGI (CAKI-1 renal): > 100 µM
- TGI (MDA-MB-231 breast): > 100 µM
- TGI (SF-539 CNS): 54 µM
- TGI (SF-295 CNS): 85.7 µM
- TGI (M14 melanoma): > 100 µM
- TGI (U251 CNS): > 100 µM
- TGI (RPMI-8226 leukemia): 87.4 µM
- TGI (OVCAR-8 ovarian): > 100 µM
- TGI (HCT-15 colon): > 100 µM
- TGI (SNB-19 CNS): > 100 µM
- TGI (OVCAR-5 ovarian): > 100 µM
- TGI (IGROV1 ovarian): > 100 µM
- TGI (RXF 393 renal): 65.4 µM
- TGI (HCT-116 colon): > 100 µM
- TGI (NCI-H226 lung): 78.5 µM
- TGI (SK-MEL-28 melanoma): > 100 µM
- TGI (NCI-H23 lung): > 100 µM
- TGI (MDA-MB-435): 68 µM
- TGI (SK-MEL-2 melanoma): > 100 µM
- TGI (HL-60(TB) leukemia): > 100 µM
- TGI (DU-145 prostate): > 100 µM
- TGI (EKVX NSCLC): > 100 µM
- TGI (SF-268 CNS): > 100 µM
- TGI (T-47D breast): > 100 µM
- TGI (HOP-62 NSCLC): > 100 µM
- TGI (OVCAR-3 ovarian): > 100 µM
- TGI (NCI-H522 lung): > 100 µM
- TGI (HOP-92 NSCLC): > 100 µM
- TGI (MALME-3M melanoma): > 100 µM
- TGI (MDA-N): 46.4 µM
- TGI (HS 578T breast): > 100 µM
- TGI (MCF7 breast): > 100 µM
- TGI (KM12 colon): > 100 µM
- TGI (CCRF-CEM leukemia): 91.7 µM
- TGI (ACHN renal): > 100 µM
- TGI (LOX IMVI melanoma): > 100 µM
- TGI (SR leukemia): > 100 µM
- TGI (BT-549 breast): > 100 µM
- TGI (OVCAR-4 ovarian): > 100 µM
- TGI (PC-3 prostate): > 100 µM
- TGI (K-562 leukemia): > 100 µM
- TGI (UO-31 renal): > 100 µM
- TGI (MOLT-4 leukemia): > 100 µM
- TGI (UACC-257 melanoma): > 100 µM
- TGI (786-0 renal): > 100 µM
- TGI (SK-MEL-5 melanoma): 36 µM
- TGI (A549 NSCLC): > 100 µM
- TGI (SW-620 colon): > 100 µM
- TGI (COLO 205 colon): 78.2 µM
- TGI (SK-OV-3 ovarian): > 100 µM
- TGI (SN12C renal): > 100 µM
- TGI (HT29 colon): > 100 µM
- TGI (TK-10 renal): > 100 µM
- TGI (A498 renal): 85.5 µM
- TGI (SNB-75 CNS): > 100 µM
- TGI (NCI/ADR-RES ovarian): > 100 µM

Compound: O=C1NC(N2CCOCC2)=N/C1=C\c1ccccc1
- TGI (CAKI-1 renal): > 100 µM
- TGI (MDA-MB-231 breast): > 100 µM
- TGI (SF-539 CNS): > 100 µM
- TGI (SF-295 CNS): > 100 µM
- TGI (M14 melanoma): > 100 µM
- TGI (U251 CNS): > 100 µM
- TGI (RPMI-8226 leukemia): > 100 µM
- TGI (OVCAR-8 ovarian): > 100 µM
- TGI (HCT-15 colon): > 100 µM
- TGI (SNB-19 CNS): > 100 µM
- TGI (OVCAR-5 ovarian): > 100 µM
- TGI (IGROV1 ovarian): > 100 µM
- TGI (HCT-116 colon): > 100 µM
- TGI (NCI-H226 lung): > 100 µM
- TGI (SK-MEL-28 melanoma): > 100 µM
- TGI (NCI-H23 lung): > 100 µM
- TGI (MDA-MB-435): > 100 µM
- TGI (SK-MEL-2 melanoma): > 100 µM
- TGI (HL-60(TB) leukemia): > 100 µM
- TGI (DU-145 prostate): > 100 µM
- TGI (EKVX NSCLC): > 100 µM
- TGI (SF-268 CNS): > 100 µM
- TGI (T-47D breast): > 100 µM
- TGI (HOP-62 NSCLC): > 100 µM
- TGI (OVCAR-3 ovarian): > 100 µM
- TGI (NCI-H522 lung): > 100 µM
- TGI (HOP-92 NSCLC): > 100 µM
- TGI (MALME-3M melanoma): > 100 µM
- TGI (MDA-N): > 100 µM
- TGI (HS 578T breast): > 100 µM
- TGI (HCC-2998 colon): > 100 µM
- TGI (MCF7 breast): > 100 µM
- TGI (KM12 colon): > 100 µM
- TGI (CCRF-CEM leukemia): > 100 µM
- TGI (ACHN renal): > 100 µM
- TGI (LOX IMVI melanoma): > 100 µM
- TGI (SR leukemia): > 100 µM
- TGI (BT-549 breast): > 100 µM
- TGI (OVCAR-4 ovarian): > 100 µM
- TGI (PC-3 prostate): > 100 µM
- TGI (UO-31 renal): > 100 µM
- TGI (MOLT-4 leukemia): > 100 µM
- TGI (UACC-257 melanoma): > 100 µM
- TGI (786-0 renal): > 100 µM
- TGI (SK-MEL-5 melanoma): > 100 µM
- TGI (A549 NSCLC): > 100 µM
- TGI (SW-620 colon): > 100 µM
- TGI (COLO 205 colon): > 100 µM
- TGI (SK-OV-3 ovarian): > 100 µM
- TGI (SN12C renal): > 100 µM
- TGI (HT29 colon): > 100 µM
- TGI (UACC-62 melanoma): > 100 µM
- TGI (TK-10 renal): > 100 µM
- TGI (SNB-75 CNS): > 100 µM
- TGI (NCI/ADR-RES ovarian): > 100 µM

Compound: COc1cc2[nH]c(=O)[nH]c2c2c(C)c[nH]c12
- TGI (CAKI-1 renal): > 100 µM
- TGI (MDA-MB-231 breast): > 100 µM
- TGI (SF-295 CNS): > 100 µM
- TGI (M14 melanoma): > 100 µM
- TGI (U251 CNS): > 100 µM
- TGI (RPMI-8226 leukemia): > 100 µM
- TGI (OVCAR-8 ovarian): > 100 µM
- TGI (HCT-15 colon): > 100 µM
- TGI (SNB-19 CNS): > 100 µM
- TGI (OVCAR-5 ovarian): > 100 µM
- TGI (IGROV1 ovarian): > 100 µM
- TGI (RXF 393 renal): > 100 µM
- TGI (HCT-116 colon): > 100 µM
- TGI (NCI-H226 lung): > 100 µM
- TGI (SK-MEL-28 melanoma): > 100 µM
- TGI (NCI-H23 lung): > 100 µM
- TGI (MDA-MB-435): > 100 µM
- TGI (SK-MEL-2 melanoma): > 100 µM
- TGI (HL-60(TB) leukemia): > 100 µM
- TGI (DU-145 prostate): > 100 µM
- TGI (EKVX NSCLC): > 100 µM
- TGI (SF-268 CNS): > 100 µM
- TGI (T-47D breast): > 100 µM
- TGI (HOP-62 NSCLC): > 100 µM
- TGI (OVCAR-3 ovarian): > 100 µM
- TGI (NCI-H460 lung): > 100 µM
- TGI (NCI-H522 lung): > 100 µM
- TGI (MALME-3M melanoma): > 100 µM
- TGI (MDA-N): > 100 µM
- TGI (HS 578T breast): > 100 µM
- TGI (HCC-2998 colon): > 100 µM
- TGI (MCF7 breast): > 100 µM
- TGI (KM12 colon): > 100 µM
- TGI (CCRF-CEM leukemia): > 100 µM
- TGI (ACHN renal): > 100 µM
- TGI (LOX IMVI melanoma): > 100 µM
- TGI (SR leukemia): > 100 µM
- TGI (BT-549 breast): > 100 µM
- TGI (OVCAR-4 ovarian): > 100 µM
- TGI (PC-3 prostate): > 100 µM
- TGI (K-562 leukemia): > 100 µM
- TGI (UO-31 renal): > 100 µM
- TGI (MOLT-4 leukemia): > 100 µM
- TGI (UACC-257 melanoma): > 100 µM
- TGI (786-0 renal): > 100 µM
- TGI (SK-MEL-5 melanoma): > 100 µM
- TGI (A549 NSCLC): > 100 µM
- TGI (SW-620 colon): > 100 µM
- TGI (COLO 205 colon): > 100 µM
- TGI (SK-OV-3 ovarian): > 100 µM
- TGI (SN12C renal): > 100 µM
- TGI (HT29 colon): > 100 µM
- TGI (UACC-62 melanoma): > 100 µM
- TGI (TK-10 renal): > 100 µM
- TGI (A498 renal): > 100 µM
- TGI (SNB-75 CNS): > 100 µM
- TGI (NCI/ADR-RES ovarian): > 100 µM
